Positions count from the first letter of the chain named. Names and notes keep the numbering of the source. Values joined by “and” are separate entries in the source; they are usually repeats but may differ in a detail not shown here. Equal values may be shown once. Each block holds one molecule with its values, some of them ahead of it.
Legend:
[1] = molecular target: T1, procaspase-6, Caspase-6 FL N-terminally (His)6 (Homo sapiens, UniProt P55212); assay: biochemical
T1 sequence (P55212 1-293): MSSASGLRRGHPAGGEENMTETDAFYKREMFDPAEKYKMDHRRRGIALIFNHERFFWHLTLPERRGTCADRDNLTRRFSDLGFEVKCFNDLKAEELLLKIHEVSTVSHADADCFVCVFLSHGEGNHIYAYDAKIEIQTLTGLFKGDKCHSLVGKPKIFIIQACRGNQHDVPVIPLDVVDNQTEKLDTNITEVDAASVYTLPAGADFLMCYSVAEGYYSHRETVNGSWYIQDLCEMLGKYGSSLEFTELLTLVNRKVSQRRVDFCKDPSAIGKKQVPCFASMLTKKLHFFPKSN

[2] = molecular target: T2, procaspase-6 (Homo sapiens, UniProt P55212); assay type: binding
T2 sequence (P55212 1-293): T1 sequence (P55212 1-293)

[3] = molecular target: T3, caspase-6 ΔN D179CT (Homo sapiens, UniProt P55212); assay: Effect of ATP on the activity of cleaved, active caspase-6; assay type: biochemical; details: increasing ATP concentrations (0-40 mM), 1.5 h, 37 °C, 60 μM VEID-AMC
T3 sequence (P55212 24-179): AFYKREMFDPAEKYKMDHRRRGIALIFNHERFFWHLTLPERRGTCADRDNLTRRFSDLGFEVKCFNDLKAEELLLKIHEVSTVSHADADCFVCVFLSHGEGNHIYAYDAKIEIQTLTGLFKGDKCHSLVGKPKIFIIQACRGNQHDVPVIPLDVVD
T3 sequence (P55212 194-293): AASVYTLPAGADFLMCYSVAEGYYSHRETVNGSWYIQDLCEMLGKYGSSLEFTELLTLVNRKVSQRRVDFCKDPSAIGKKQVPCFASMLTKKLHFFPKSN

[4] = molecular target: procaspase-6 (inactive C163S zymogen); details: SPR; cited from earlier work
[5] = molecular target: T4, procaspase-6 Y198A (Homo sapiens, UniProt P55212, Y198A); assay: ATPAc labeling of K133, Y198A variant expressed in E. coli; assay type: binding; details: zymogen processed to mature Y198A caspase-6; relative to C163S = 100%
T4 sequence (P55212 24-179): T3 sequence (P55212 24-179)
T4 sequence (P55212 194-293 Y198A): T3 sequence (P55212 194-293) with Y5A

[6] = molecular target: T5, procaspase-6 Y198A/C163S (Homo sapiens, UniProt P55212, C163S/Y198A); assay: ATPAc labeling of K133, Y198A/C163S variant expressed in E. coli; assay type: binding; details: full-length procaspase-6; relative to C163S = 100%
T5 sequence (P55212 1-293 C163S/Y198A): T1 sequence (P55212 1-293) with C163S, Y198A

[7] = molecular target: T6, procaspase-6 C163S (Homo sapiens, UniProt P55212, C163S); assay: ATPAc labeling of K133, C163S variant expressed in E. coli; assay type: binding; details: full-length zymogen; defined as 100%
T6 sequence (P55212 1-293 C163S): T1 sequence (P55212 1-293) with C163S

[8] = molecular target: T7, caspase-6 (Homo sapiens, UniProt P55212); assay: Caspase activity assay, kinetic parameters with VEID-AMC substrate; assay type: biochemical; details: 100 nM enzyme, VEID-AMC 0-500 μM, 37 °C
T7 sequence (P55212 24-179): T3 sequence (P55212 24-179)
T7 sequence (P55212 194-293): T3 sequence (P55212 194-293)

- IC50 [1]: 19000 ± 800 µM
- IC50 [2]: 1000 to 3000 µM
- Ki [2]: ~2000 µM
- activity of mature caspase-6 [3]: not affected
Molecule: Nc1ncnc2c1ncn2[C@@H]1O[C@H](COP(=O)(O)OP(=O)(O)OP(=O)(O)O)[C@@H](O)[C@H]1O [ATP, adenosine triphosphate]

- inhibition of K133 acylation by acyl phosphate probes ([2]; resting Jurkat lysates pretreated 15 min with nucleotide (5 mM)): inhibited
Molecule: Nc1nc2c(ncn2[C@@H]2O[C@H](COP(=O)(O)OP(=O)(O)OP(=O)(O)O)[C@@H](O)[C@H]2O)c(=O)[nH]1 [GTP, guanosine triphosphate]

- IC50 [2]: > 1000 µM
Molecule: Nc1cc2ccccc2c(O)n1 [compound 3, 3-aminoisoquinolin-1-ol]
- Kd [4]: 1.8 µM and ~1.8 µM

- inhibition of probe acylation (immunoblot) ([2]; immunoblot experiment, at ≤100 mM): no significant inhibition
Molecule: Nc1ncnc2c1ncn2[C@H]1C[C@H](O)[C@@H](COP(=O)(O)OP(=O)(O)OP(=O)(O)O)O1 [dATP]

- acylation of K133 [5]: 1.9%
- acylation of K133 [6]: 1.7%
- acylation of K133 [7]: 100%
Molecule: desthiobiotin acyl phosphate of ATP [ATPAc]

B1: Y198A: mature active caspase-6 Y198A variant, recombinant, expressed in E. coli (protein, UniProt P55212 1-293, looked up, variant Y198A)
chain: T1 sequence (P55212 1-293) with Y198A
- kcat [8]: 2.84 ± 0.04 s⁻¹

From PMC6874883 (Biochemistry, 2019)
